This is an account of results in ChEMBL document CHEMBL5252584, “Design, synthesis and anti-Chikungunya virus activity of lomerizine derivatives” (Bioorg Med Chem Lett, 2023).

The test system of data set [1] is Chikungunya virus. Description: Antiviral activity against CHIKV infected in human Huh-7 cells assessed as inhibition of viral growth at 5 uM incubated for 12 hrs relative to control. The class given is functional.
The next data set has as its system Huh-7. Description: Cytotoxicity against human Huh-7 cells assessed as reduction in cell viability at 5 uM by CCK8 assay relative to control. In kind it is toxicity, cell-based. To be noted: huh-7, 5 µM. On the technique in general: Formazan colour is commonly taken as a measure of viable cells.
Data set [2] relates to Chikungunya virus. In words: Antiviral activity against CHIKV infected in human Huh-7 cells assessed as inhibition of viral growth at 10 uM incubated for 12 hrs relative to control. More on the design: scale not given: the % may be the effect or the level left. In kind it is functional.
In data set [3] the test system is Chikungunya virus. In words: Antiviral activity against CHIKV infected in human Huh-7 cells assessed as inhibition of viral growth at 2.5 uM incubated for 12 hrs relative to control. The class given is functional.
Data set [4] in a line: Selectivity index, ratio of CC50 for cytotoxicity against human Huh-7 cells to IC50 for antiviral activity against CHIKV infected in human Huh-7 cells. The class given is toxicity, cell-based. As to conditions: read-out: Ratio CC50/IC50.
A short description of data set [5]: Cytotoxicity against human Huh-7 cells assessed as reduction in cell viability by CCK8 assay relative to control. In kind it is toxicity, cell-based.
The subject of data set [6] is Chikungunya virus. Description: Antiviral activity against CHIKV infected in human Huh-7 cells assessed as inhibition of viral growth incubated for 12 hrs. In kind it is functional, organism-based. As to conditions: Huh-7, 12 h.

A word on the inhibition: it is the change of the read-out against control, counted positive when it falls. The term cell viability denotes a per cent measure of how many cells are alive, often set against a control. For `O=C(/C=C/c1ccc(O)c(O)c1)N1CCN(C(c2ccccc2)c2ccc(Cl)cc2)CC1` (stereo not given), the inhibition at 5 µM in the data set with Chikungunya virus [1] turned out to be 34.7%. Also, in the data set with Huh-7, the cell viability is greater than 80%. Further, the Activity in the data set on Chikungunya virus [2] is reported as 74.4%. The inhibition at 2.5 µM with Chikungunya virus [3] is 20.2%.
On the same counts, the results for `O=C(/C=C/c1ccc(O)c(O)c1)N1CCN(C(c2ccc(F)cc2)c2ccc(F)cc2)CC1` are 43.9%, greater than 80%, 96.3% and 20.1%.
The term CC50 denotes the concentration that lowers cell viability or growth by half. In general, IC50 refers to the concentration needed to halve the response being measured. With `O=C(/C=C/c1ccccc1F)N1CCN(C(c2ccc(F)cc2)c2ccc(F)cc2)CC1`, the inhibition at 5 µM in the data set with Chikungunya virus [1] is 92.8%. For the same molecule, in the data set on Huh-7, the cell viability was greater than 80%. In addition, in data set [4], the selectivity ratio stood at 51.9. Further, the Activity in the data set on Chikungunya virus [2] stood at 95.8%. Besides, in the data set on Chikungunya virus [3], the inhibition at 2.5 µM came to 74.2%. Moreover, the CC50 in data set [5] was found to be 31.7 µM. The IC50 in the data set on Chikungunya virus [6] is 0.61 µM.
In the case of `O=C(/C=C/c1ccc(F)cc1)N1CCN(C(c2ccc(F)cc2)c2ccc(F)cc2)CC1`, the inhibition at 5 µM in the data set on Chikungunya virus [1] was found to be 19.6%. Further, the cell viability with Huh-7 was greater than 80%. The Activity with Chikungunya virus [2] is reported as 55.2%. Besides, the inhibition at 2.5 µM in the data set on Chikungunya virus [3] is 9.7%.
As to `O=C(/C=C/c1ccccc1F)N1CCN(C(c2ccccc2)c2ccccc2)CC1`, the inhibition at 5 µM in the data set on Chikungunya virus [1] was found to be 62.1%. Besides, the cell viability in the data set with Huh-7 was greater than 80%. Further, the selectivity ratio in data set [4] worked out at 7.6. The Activity with Chikungunya virus [2] is recorded as 77.6%. Besides, the inhibition at 2.5 µM in the data set on Chikungunya virus [3] was determined as 17.9%. Also, the CC50 in data set [5] was 34.2 µM. The IC50 in the data set with Chikungunya virus [6] stood at 4.5 µM.
Take `O=C(/C=C/c1cccc(F)c1)N1CCN(C(c2ccc(F)cc2)c2ccc(F)cc2)CC1`: the inhibition at 5 µM with Chikungunya virus [1] came out at 78.9%. Moreover, the cell viability with Huh-7 was greater than 80%. Also, the selectivity ratio in data set [4] turned out to be 11.1. In addition, the Activity with Chikungunya virus [2] was found to be 85.8%. For the same molecule, in the data set on Chikungunya virus [3], the inhibition at 2.5 µM amounted to 59.6%. Besides, the CC50 in data set [5] worked out at 22.9 µM. In addition, in the data set on Chikungunya virus [6], the IC50 amounted to 2.06 µM.
`Cc1ccc(/C=C/C(=O)N2CCN(C(c3ccccc3)c3ccc(Cl)cc3)CC2)cc1` (stereo not given): in the data set on Chikungunya virus [1], the inhibition at 5 µM amounted to 29.7%. Also, in the data set with Huh-7, the cell viability is given as greater than 80%. The Activity in the data set on Chikungunya virus [2] came out at 56.3%. Also, the inhibition at 2.5 µM with Chikungunya virus [3] came out at 13.4%.
As to `Cc1ccc(/C=C/C(=O)N2CCN(C(c3ccc(F)cc3)c3ccc(F)cc3)CC2)cc1`, the inhibition at 5 µM in the data set on Chikungunya virus [1] amounted to 32.8%. Moreover, the cell viability in the data set with Huh-7 was greater than 80%. The Activity in the data set on Chikungunya virus [2] is 84.3%. In addition, the inhibition at 2.5 µM in the data set with Chikungunya virus [3] amounted to 21.3%.
Consider `O=C(/C=C/c1ccc2c(c1)OCO2)N1CCN(C(c2ccccc2)c2ccc(Cl)cc2)CC1` (stereo not given), for which the inhibition at 5 µM in the data set on Chikungunya virus [1] was determined as 52.3%. The cell viability with Huh-7 is given as greater than 80%. The selectivity ratio in data set [4] came out at 6.5. Further, the Activity in the data set on Chikungunya virus [2] worked out at 86.5%. Also, the inhibition at 2.5 µM in the data set with Chikungunya virus [3] came out at 13.2%. Also, the CC50 in data set [5] was found to be 31.4 µM. Further, in the data set with Chikungunya virus [6], the 50% inhibitory concentration (IC50) was determined as 4.83 µM.
On to `O=C(/C=C/c1ccc2c(c1)OCO2)N1CCN(C(c2ccc(F)cc2)c2ccc(F)cc2)CC1`, for which, in the data set on Chikungunya virus [1], the inhibition at 5 µM amounted to 93.1%. In addition, the cell viability with Huh-7 is greater than 80%. Also, in data set [4], the selectivity ratio stood at 66. In addition, in the data set on Chikungunya virus [2], the Activity was found to be 97.4%. Also, the inhibition at 2.5 µM with Chikungunya virus [3] was 86.9%. The CC50 in data set [5] came to 29.7 µM. Besides, the IC50 in the data set with Chikungunya virus [6] turned out to be 0.45 µM.
Regarding `O=C(/C=C/c1cccnc1)N1CCN(C(c2ccc(F)cc2)c2ccc(F)cc2)CC1`, the inhibition at 5 µM in the data set on Chikungunya virus [1] amounted to 54.4%. Further, the cell viability in the data set with Huh-7 is listed as greater than 80%. For the same molecule, the selectivity ratio in data set [4] came out at 13. Also, in the data set on Chikungunya virus [2], the Activity came out at 76.5%. Further, the inhibition at 2.5 µM in the data set with Chikungunya virus [3] is 53.8%. In addition, in data set [5], the CC50 stood at 20.9 µM. Besides, the IC50 in the data set with Chikungunya virus [6] is 1.61 µM.
In the case of `O=C(/C=C/c1ccncc1)N1CCN(C(c2ccc(F)cc2)c2ccc(F)cc2)CC1`, in the data set on Chikungunya virus [1], the inhibition at 5 µM is 90.7%. In the data set on Huh-7, the cell viability is greater than 80%. Moreover, in data set [4], the selectivity ratio amounted to 13.3. Besides, the Activity in the data set with Chikungunya virus [2] was found to be 95.3%. The inhibition at 2.5 µM in the data set with Chikungunya virus [3] was 58.1%. Besides, the CC50 in data set [5] stood at 31.3 µM. Besides, in the data set with Chikungunya virus [6], the IC50 is 2.35 µM.
`O=c1cc(-c2ccccc2)oc2cc(O)c(O)c(O)c12` [BAICALEIN]: the selectivity ratio in data set [4] is greater than 6. Moreover, in data set [5], the CC50 is greater than 100 µM. Besides, the IC50 in the data set with Chikungunya virus [6] came out at 16.9 µM.
Taken in the same sequence, the figures for `COc1ccc(CN2CCN(C(c3ccc(F)cc3)c3ccc(F)cc3)CC2)c(OC)c1OC` [LOMERIZINE] were greater than 24.9, greater than 100 µM and 4.02 µM.
